Molecules are shown by their SMILES. Where a name gives a salt, the structure may show the parent alone.

The subject of one test is glycolysis in HT1080 cells. Description: Glycolysis assay: oligomycin plus compound, cellular ATP by Cell Titer Glo. Type of test: cell-based. The following applies: Homo sapiens, HT-1080, 1 h, 10 μM oligomycin, one hour, class symbols. The essentials:
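Confluent HT1080 cells treated 1 h with compound plus 10 μM oligomycin to block mitochondrial ATP, so remaining ATP reflects glycolysis. Cellular ATP read by Cell Titer-Glo luminescence; IC50 derived from dose-response curves.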
Background: Cellular ATP, detected with luciferase, serves as a proxy for viable cell number.
For `CCC(CC)NC(=O)COc1cccc(-c2nc3c(c(Nc4ccc(-c5cn[nH]c5)cc4)n2)CN(C(C)=O)CC3)c1` [Example 113, 2-(3-(4-((4-(1H-pyrazol-4-yl)phenyl)amino)-6-acetyl-5,6,7,8-tetrahydropyrido[4,3-d]pyrimidin-2-yl)phenoxy)-N-(pentan-3-yl)acetamide], the IC50 was 10 to 100 nM.
Still for that read-out and setting: then `CC(=O)N1CCc2nc(-c3cccc(OCC(=O)NC(C)(C)C)c3)nc(Nc3ccc(-c4cn[nH]c4)cc3)c2C1` [Example 114, 2-(3-(4-((4-(1H-pyrazol-4-yl)phenyl)amino)-6-acetyl-5,6,7,8-tetrahydropyrido[4,3-d]pyrimidin-2-yl)phenoxy)-N-(tert-butyl)acetamide], with 10 to 100 nM; and `CCC(CC)NC(=O)COc1cccc(-c2nc3c(c(Nc4ccc(-c5cn[nH]c5)cc4)n2)CN(CC)CC3)c1` [Example 118, 2-(3-(4-((4-(1H-pyrazol-4-yl)phenyl)amino)-6-ethyl-5,6,7,8-tetrahydropyrido[4,3-d]pyrimidin-2-yl)phenoxy)-N-(pentan-3-yl)acetamide], with 501 to 1000 nM; and `CCC(CC)NC(=O)COc1cccc(-c2nc3c(c(Nc4ccc(-c5cn[nH]c5)cc4)n2)CN(C(C)C)CC3)c1` [Example 119, 2-(3-(4-((4-(1H-pyrazol-4-yl)phenyl)amino)-6-isopropyl-5,6,7,8-tetrahydropyrido[4,3-d]pyrimidin-2-yl)phenoxy)-N-(pentan-3-yl)acetamide], with 501 to 1000 nM.
Still for that read-out and setting: the result for `CCN1CCc2nc(-c3cccc(OCC(=O)NC4CCCC4)c3)nc(Nc3ccc(-c4cn[nH]c4)cc3)c2C1` [Example 125, 2-(3-(4-((4-(1H-pyrazol-4-yl)phenyl)amino)-6-ethyl-5,6,7,8-tetrahydropyrido[4,3-d]pyrimidin-2-yl)phenoxy)-N-cyclopentylacetamide] reads 101 to 250 nM; that for `COCCOc1cccc(-c2nc3c(c(Nc4ccc(-c5cn[nH]c5)cc4)n2)COCC3)c1` [Example 127, N-(4-(1H-pyrazol-4-yl)phenyl)-2-(3-(2-methoxyethoxy)phenyl)-7,8-dihydro-5H-pyrano[4,3-d]pyrimidin-4-amine], above 1000 nM.
Same read-out and setting: then `CCC(C)(C)NC(=O)COc1cccc(-c2nc3c(c(Nc4ccc(-c5cn[nH]c5)cc4)n2)CNCC3)c1` [Example 128, 2-(3-(4-((4-(1H-pyrazol-4-yl)phenyl)amino)-5,6,7,8-tetrahydropyrido[4,3-d]pyrimidin-2-yl)phenoxy)-N-(tert-pentyl)acetamide], with 10 to 100 nM; and `CCN1CCc2nc(-c3cccc(OCC(=O)NC(C)(C)CC)c3)nc(Nc3ccc(-c4cn[nH]c4)cc3)c2C1` [Example 130, 2-(3-(4-((4-(1H-pyrazol-4-yl)phenyl)amino)-6-ethyl-5,6,7,8-tetrahydropyrido[4,3-d]pyrimidin-2-yl)phenoxy)-N-(tert-pentyl)acetamide], with 10 to 100 nM; and `CCC(C)(C)NC(=O)COc1cccc(-c2nc3c(c(Nc4ccc(-c5cn[nH]c5)cc4)n2)CN(C(C)C)CC3)c1` [Example 131, 2-(3-(4-((4-(1H-pyrazol-4-yl)phenyl)amino)-6-isopropyl-5,6,7,8-tetrahydropyrido[4,3-d]pyrimidin-2-yl)phenoxy)-N-(tert-pentyl)acetamide], with 101 to 250 nM.
As to `CCC(=O)N1CCc2nc(-c3cccc(OCC(=O)NC(C)(C)CC)c3)nc(Nc3ccc(-c4cn[nH]c4)cc3)c2C1` [Example 132, 2-(3-(4-((4-(1H-pyrazol-4-yl)phenyl)amino)-6-propionyl-5,6,7,8-tetrahydropyrido[4,3-d]pyrimidin-2-yl)phenoxy)-N-(tert-pentyl)acetamide], the IC50 lay in the range of 10 to 100 nM.
For the molecule `CC(C)NC(=O)COc1cccc(-c2nc(Nc3ccc(-c4cn[nH]c4)cc3)c3cnccc3n2)c1` [Example 134, 2-(3-(4-((4-(1H-pyrazol-4-yl)phenyl)amino)pyrido[4,3-d]pyrimidin-2-yl)phenoxy)-N-isopropylacetamide], the IC50 lay within 10 to 100 nM.
On the same count and under the same terms, the result for `CC(C)(C)NC(=O)COc1cccc(-c2nc(Nc3ccc(-c4cn[nH]c4)cc3)c3cnccc3n2)c1` [Example 135, 2-(3-(4-((4-(1H-pyrazol-4-yl)phenyl)amino)pyrido[4,3-d]pyrimidin-2-yl)phenoxy)-N-(tert-butyl)acetamide] reads 10 to 100 nM; that for `CC(C)(C)NC(=O)COc1cccc(-c2nc(Nc3ccc(-c4cn[nH]c4)cc3)c3ccncc3n2)c1` [Example 136, 2-(3-(4-((4-(1H-pyrazol-4-yl)phenyl)amino)pyrido[3,4-d]pyrimidin-2-yl)phenoxy)-N-(tert-butyl)acetamide], 10 to 100 nM.
Same read-out and setting: then `CCC(CC)NC(=O)COc1cccc(-c2nc(Nc3ccc(-c4cn[nH]c4)cc3)c3ccncc3n2)c1` [Example 137, 2-(3-(4-((4-(1H-pyrazol-4-yl)phenyl)amino)pyrido[3,4-d]pyrimidin-2-yl)phenoxy)-N-(pentan-3-yl)acetamide dihydrochloride], with 10 to 100 nM; and `O=C(COc1cccc(-c2nc(Nc3ccc(-c4cn[nH]c4)cc3)c3ccncc3n2)c1)NC1CCCCC1` [Example 138, 2-(3-(4-((4-(1H-pyrazol-4-yl)phenyl)amino)pyrido[3,4-d]pyrimidin-2-yl)phenoxy)-N-cyclohexylacetamide dihydrochloride], with 10 to 100 nM.
On the same count and under the same terms, then `NC(=O)COc1cccc(-c2nc(Nc3ccc(-c4cn[nH]c4)cc3)c3sccc3n2)c1` [Example 139, 2-(3-(4-((4-(1H-pyrazol-4-yl)phenyl)amino)thieno[3,2-d]pyrimidin-2-yl)phenoxy)acetamide], with above 1000 nM; and `CC(=O)N1Cc2nc(-c3cccc(OCC(=O)NC(C)C)c3)nc(Nc3ccc(-c4cn[nH]c4)cc3)c2C1` [Example 140, 2-(3-(4-((4-(1H-pyrazol-4-yl)phenyl)amino)-6-acetyl-6,7-dihydro-5H-pyrrolo[3,4-d]pyrimidin-2-yl)phenoxy)-N-isopropylacetamide], with 101 to 250 nM.
Regarding `CCC(CC)NC(=O)COc1cccc(-c2nc3c(c(Nc4ccc(-c5cn[nH]c5)cc4)n2)CN(C(C)=O)C3)c1` [Example 141, 2-(3-(4-((4-(1H-pyrazol-4-yl)phenyl)amino)-6-acetyl-6,7-dihydro-5H-pyrrolo[3,4-d]pyrimidin-2-yl)phenoxy)-N-(pentan-3-yl)acetamide], the IC50 fell in the range of 10 to 100 nM.
With `CC(=O)N1Cc2nc(-c3cccc(OCC(=O)NC(C)(C)C)c3)nc(Nc3ccc(-c4cn[nH]c4)cc3)c2C1` [Example 142, 2-(3-(4-((4-(1H-pyrazol-4-yl)phenyl)amino)-6-acetyl-6,7-dihydro-5H-pyrrolo[3,4-d]pyrimidin-2-yl)phenoxy)-N-(tert-butyl)acetamide], the IC50 lay within 10 to 100 nM.
On the same count and under the same terms, the result for `CC(=O)N1Cc2nc(-c3cccc(OCC(=O)NC4CCCC4)c3)nc(Nc3ccc(-c4cn[nH]c4)cc3)c2C1` [Example 143, 2-(3-(4-((4-(1H-pyrazol-4-yl)phenyl)amino)-6-acetyl-6,7-dihydro-5H-pyrrolo[3,4-d]pyrimidin-2-yl)phenoxy)-N-cyclopentylacetamide] reads 10 to 100 nM; that for `CC(=O)N1CCc2nc(-c3cccc(OCC(=O)NC4CCCC4)c3)nc(Nc3ccc(-c4cn[nH]c4)cc3)c2C1` [Example 145, 2-(3-(4-((4-(1H-pyrazol-4-yl)phenyl)amino)-6-acetyl-5,6,7,8-tetrahydropyrido[4,3-d]pyrimidin-2-yl)phenoxy)-N-cyclopentylacetamide], 10 to 100 nM.
Same read-out and setting: then `CC(=O)N1CCc2nc(-c3cccc(OCC(=O)NCC(C)C)c3)nc(Nc3ccc(-c4cn[nH]c4)cc3)c2C1` [Example 146, 2-(3-(4-((4-(1H-pyrazol-4-yl)phenyl)amino)-6-acetyl-5,6,7,8-tetrahydropyrido[4,3-d]pyrimidin-2-yl)phenoxy)-N-isobutylacetamide], with 10 to 100 nM; and `CC(=O)N1CCc2nc(-c3cccc(OCC(=O)NCC(C)(C)C)c3)nc(Nc3ccc(-c4cn[nH]c4)cc3)c2C1` [Example 147, 2-(3-(4-((4-(1H-pyrazol-4-yl)phenyl)amino)-6-acetyl-5,6,7,8-tetrahydropyrido[4,3-d]pyrimidin-2-yl)phenoxy)-N-neopentylacetamide], with 10 to 100 nM; and `CCC(C)(C)NC(=O)COc1cccc(-c2nc3c(c(Nc4ccc(-c5cn[nH]c5)cc4)n2)CN(C(C)=O)CC3)c1` [Example 148, 2-(3-(4-((4-(1H-pyrazol-4-yl)phenyl)amino)-6-acetyl-5,6,7,8-tetrahydropyrido[4,3-d]pyrimidin-2-yl)phenoxy)-N-(tert-pentyl)acetamide], with 10 to 100 nM.
With `CC(C)NC(=O)COc1cccc(-c2nc3c(c(Nc4ccc(-c5cn[nH]c5)cc4)n2)CN(C(=O)C(C)C)CC3)c1` [Example 149, 2-(3-(4-((4-(1H-pyrazol-4-yl)phenyl)amino)-6-isobutyryl-5,6,7,8-tetrahydropyrido[4,3-d]pyrimidin-2-yl)phenoxy)-N-isopropylacetamide], the IC50 was 10 to 100 nM.
Still for that read-out and setting: then `CC(C)C(=O)N1CCc2nc(-c3cccc(OCC(=O)NC(C)(C)C)c3)nc(Nc3ccc(-c4cn[nH]c4)cc3)c2C1` [Example 151, 2-(3-(4-((4-(1H-pyrazol-4-yl)phenyl)amino)-6-isobutyryl-5,6,7,8-tetrahydropyrido[4,3-d]pyrimidin-2-yl)phenoxy)-N-(tert-butyl)acetamide], with 10 to 100 nM; and `CC(C)C(=O)N1CCc2nc(-c3cccc(OCC(=O)NC4CCC4)c3)nc(Nc3ccc(-c4cn[nH]c4)cc3)c2C1` [Example 152, 2-(3-(4-((4-(1H-pyrazol-4-yl)phenyl)amino)-6-isobutyryl-5,6,7,8-tetrahydropyrido[4,3-d]pyrimidin-2-yl)phenoxy)-N-cyclobutylacetamide], with 10 to 100 nM.

The test is the same for the next values; noted with them: Homo sapiens, HT-1080, 1 h, 10 μM oligomycin, one hour, number printed instead of class.
Consider `CC(C)C(=O)N1CCc2nc(-c3cccc(OCC(=O)NC4CCCC4)c3)nc(Nc3ccc(-c4cn[nH]c4)cc3)c2C1` [Example 150, 2-(3-(4-((4-(1H-pyrazol-4-yl)phenyl)amino)-6-isobutyryl-5,6,7,8-tetrahydropyrido[4,3-d]pyrimidin-2-yl)phenoxy)-N-cyclopentylacetamide], for which the IC50 turned out to be 28 nM.

What is called IC50 is the concentration that inhibits the measured activity by half.

The values are drawn from patent publication US10273248B2, “Glucose uptake inhibitors” (Kadmon Corporation LLC, priority 2015, dated 2019).
